This passage reports EC50 results from patent US20230391760A1, “HETEROCYCLIC GLP-1 AGONISTS” (Gasherbrum Bio, Inc., priority 2020, published 2023).

Usually pEC50 stands for −log10 of the EC50, conventionally taken in molar units. Read a high pEC50 as a low EC50.

pEC50: −log10 of the molar value.

Sequence of GLP-1 Receptor (P43220 24-463, species assumed): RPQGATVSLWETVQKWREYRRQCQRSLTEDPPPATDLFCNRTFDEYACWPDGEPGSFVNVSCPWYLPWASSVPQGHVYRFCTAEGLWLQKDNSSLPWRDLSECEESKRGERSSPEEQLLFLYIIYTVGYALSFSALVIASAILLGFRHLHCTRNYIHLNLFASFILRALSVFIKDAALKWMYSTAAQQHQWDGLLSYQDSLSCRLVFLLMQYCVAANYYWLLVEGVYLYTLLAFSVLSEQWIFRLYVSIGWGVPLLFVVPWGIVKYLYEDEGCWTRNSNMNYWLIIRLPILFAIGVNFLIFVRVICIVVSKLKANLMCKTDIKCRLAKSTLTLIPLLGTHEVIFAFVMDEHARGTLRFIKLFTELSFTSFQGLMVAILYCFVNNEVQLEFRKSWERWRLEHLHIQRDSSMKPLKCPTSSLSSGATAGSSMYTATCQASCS

The target in this test is GLP-1 Receptor (Homo sapiens, UniProt P43220). Briefly: GLP-1R agonist cAMP stimulation assay (HEK293/GLP1R/CRE-LUC cells, cAMP dynamic 2 Kit). It is filed as cell-based. The note with it: HEK293/CRE-Luc cell line stably expressing the GLP-1 Receptor, 30 min at 37° C. A digest of the protocol:
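cAMP measured by HTRF competition (d2-labelled cAMP with cryptate antibody, 1 h, room temperature, protected from light). Before that, GLP1R/CRE-Luc HEK293 cells (1000/well) were exposed for 30 min at 37 °C to half-log compound dilutions in DPBS containing IBMX 0.5 mM and BSA 0.1%.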
In the case of `Cc1nnc(-c2cc3nc(CN4CCC(c5cccc6c5O[C@@](C)(c5ccc(Cl)cn5)O6)CC4)n(C[C@@H]4CCO4)c3nn2)[nH]1` [Compound 477a, 5-chloro-2-[(2S)-2-methyl-4-(1-{[3-(5-methyl-4H-1,2,4-triazol-3-yl)-7-{[(2S)-oxetan-2-yl]methyl}-7H-imidazo[4,5-c]pyridazin-6-yl]methyl}piperidin-4-yl)-2H-1,3-benzodioxol-2-yl]pyridine], the pEC50 was 9.01. For `Fc1cc(Cl)ccc1COc1cc(C2CCN(Cc3nc4cc(-c5nnc(C(F)(F)F)[nH]5)ncc4n3C[C@@H]3CCO3)CC2F)ccc1F` (stereo partly drawn) [Compound 478a, (3,4-trans)-4-{3-[(4-chloro-2-fluorophenyl)methoxy]-4-fluorophenyl}-3-fluoro-1-[(3-{[(2S)-oxetan-2-yl]methyl}-6-[5-(trifluoromethyl)-4H-1,2,4-triazol-3-yl]-3H-imidazo[4,5-c]pyridin-2-yl)methyl]piperidine], the pEC50 is 10.00. Regarding `C[C@H]1CN(c2ccc(F)c(OCc3ccc(Cl)cc3F)c2)CCN1Cc1nc2cc(-c3nnc(C(F)(F)F)[nH]3)ncc2n1C[C@@H]1CCO1` [Compound 479a, (2S)-4-{3-[(4-chloro-2-fluorophenyl)methoxy]-4-fluorophenyl}-2-methyl-1-[(3-{[(2S)-oxetan-2-yl]methyl}-6-[5-(trifluoromethyl)-4H-1,2,4-triazol-3-yl]-3H-imidazo[4,5-c]pyridin-2-yl)methyl]piperazine], the pEC50 was 10.00. For `C[C@H]1CN(c2cccc(OCc3ccc(Cl)cc3F)n2)CCN1Cc1nc2cc(-c3nnc(C(F)(F)F)[nH]3)ncc2n1C[C@@H]1CCO1` [Compound 480a, (2S)-4-{6-[(4-chloro-2-fluorophenyl)methoxy]pyridin-2-yl}-2-methyl-1-[(3-{[(2S)-oxetan-2-yl]methyl}-6-[5-(trifluoromethyl)-4H-1,2,4-triazol-3-yl]-3H-imidazo[4,5-c]pyridin-2-yl)methyl]piperazine], the pEC50 is 10.74. Turning to `C[C@]1(c2ccc(Cl)cn2)Oc2cccc(C3CCN(Cc4nc5cc(-c6nnc(C#N)[nH]6)ncc5n4C[C@@H]4CCO4)CC3)c2O1` [Compound 481a, 5-[2-({4-[(2S)-2-(5-chloropyridin-2-yl)-2-methyl-2H-1,3-benzodioxol-4-yl]piperidin-1-yl}methyl)-3-{[(2S)-oxetan-2-yl]methyl}-3H-imidazo[4,5-c]pyridin-6-yl]-4H-1,2,4-triazole-3-carbonitrile], the negative logarithm of the EC50 (pEC50) is 11.32. Take `C[C@]1(c2ccc(Cl)cn2)Oc2cccc(C3CCN(Cc4nc5cc(-c6nnc(C#N)[nH]6)nnc5n4C[C@@H]4CCO4)CC3)c2O1` [Compound 482a, 5-[6-({4-[(2S)-2-(5-chloropyridin-2-yl)-2-methyl-2H-1,3-benzodioxol-4-yl]piperidin-1-yl}methyl)-7-{[(2S)-oxetan-2-yl]methyl}-7H-imidazo[4,5-c]pyridazin-3-yl]-4H-1,2,4-triazole-3-carbonitrile]: the pEC50 is 10.49.

Consider `Fc1cc(Cl)ccc1COc1cc(N2CCN(Cc3nc4cc(-c5nnc(C(F)(F)F)[nH]5)nnc4n3C[C@@H]3CCO3)CC2)ccc1F` [Compound 483a, 1-{3-[(4-chloro-2-fluorophenyl)methoxy]-4-fluorophenyl}-4-[(7-{[(2S)-oxetan-2-yl]methyl}-3-[5-(trifluoromethyl)-4H-1,2,4-triazol-3-yl]-7H-imidazo[4,5-c]pyridazin-6-yl)methyl]piperazine], for which the pEC50 was 9.29.

With `N#Cc1nnc(-c2cc3nc(CN4CCC(c5cccc(OCc6ccc(Cl)cc6F)n5)CC4)n(C[C@@H]4CCO4)c3cn2)[nH]1` [Compound 484a, 5-{2-[(4-{6-[(4-chloro-2-fluorophenyl)methoxy]pyridin-2-yl}piperidin-1-yl)methyl]-3-{[(2S)-oxetan-2-yl]methyl}-3H-imidazo[4,5-c]pyridin-6-yl}-4H-1,2,4-triazole-3-carbonitrile], the negative-log EC50 (pEC50) was 11.20. `N#Cc1ccc(COc2nc(C3CCN(Cc4nc5cc(-c6nnc(C(F)(F)F)[nH]6)ncc5n4C[C@@H]4CCO4)CC3)ccc2F)c(F)c1` [Compound 485a, 3-fluoro-4-{[(3-fluoro-6-{1-[(3-{[(2S)-oxetan-2-yl]methyl}-6-[5-(trifluoromethyl)-4H-1,2,4-triazol-3-yl]-3H-imidazo[4,5-c]pyridin-2-yl)methyl]piperidin-4-yl}pyridin-2-yl)oxy]methyl}benzonitrile]: the pEC50 was 11.02. `Fc1cc(Cl)ccc1COc1cccc(C2CCN(Cc3nc4cc(-c5nnc(C(F)(F)F)[nH]5)nnc4n3C[C@@H]3CCO3)CC2)n1` [Compound 486a, 2-[(4-chloro-2-fluorophenyl)methoxy]-6-{1-[(7-{[(2S)-oxetan-2-yl]methyl}-3-[5-(trifluoromethyl)-4H-1,2,4-triazol-3-yl]-7H-imidazo[4,5-c]pyridazin-6-yl)methyl]piperidin-4-yl}pyridine] had a pEC50 of 10.42. For `N#Cc1ccc(COc2cccc(C3CCN(Cc4nc5cc(-c6nnc(C(F)(F)F)[nH]6)nnc5n4C[C@@H]4CCO4)CC3)n2)c(F)c1` [Compound 487a, 3-fluoro-4-{[(6-{1-[(7-{[(2S)-oxetan-2-yl]methyl}-3-[5-(trifluoromethyl)-4H-1,2,4-triazol-3-yl]-7H-imidazo[4,5-c]pyridazin-6-yl)methyl]piperidin-4-yl}pyridin-2-yl)oxy]methyl}benzonitrile], the pEC50 is 10.54. `Fc1cc(Cl)ccc1COc1nc(C2CCN(Cc3nc4cc(-c5nnc(C(F)(F)F)[nH]5)nnc4n3C[C@@H]3CCO3)CC2)ccc1F` [Compound 488a, 2-[(4-chloro-2-fluorophenyl)methoxy]-3-fluoro-6-{1-[(7-{[(2S)-oxetan-2-yl]methyl}-3-[5-(trifluoromethyl)-4H-1,2,4-triazol-3-yl]-7H-imidazo[4,5-c]pyridazin-6-yl)methyl]piperidin-4-yl}pyridine] gave a pEC50 of 10.27. Take `C[C@H]1CN(c2ncc(F)c(OCc3ccc(Cl)cc3F)n2)CCN1Cc1nc2cc(-c3nnc(C(F)(F)F)[nH]3)ncc2n1C[C@@H]1CCO1` [Compound 489a, 4-[(4-chloro-2-fluorophenyl)methoxy]-5-fluoro-2-[(3S)-3-methyl-4-[(3-{[(2S)-oxetan-2-yl]methyl}-6-[5-(trifluoromethyl)-4H-1,2,4-triazol-3-yl]-3H-imidazo[4,5-c]pyridin-2-yl)methyl]piperazin-1-yl]pyrimidine]: the pEC50 is 10.06. Compound `Fc1cc(Cl)ccc1COc1nc(N2CCN(Cc3nc4cc(-c5nnc(C(F)(F)F)[nH]5)ncc4n3C[C@@H]3CCO3)CC2)ncc1F` [Compound 490a, 4-[(4-chloro-2-fluorophenyl)methoxy]-5-fluoro-2-{4-[(3-{[(2S)-oxetan-2-yl]methyl}-6-[5-(trifluoromethyl)-4H-1,2,4-triazol-3-yl]-3H-imidazo[4,5-c]pyridin-2-yl)methyl]piperazin-1-yl}pyrimidine] gave a negative logarithm of the EC50 (pEC50) of 10.07. Regarding `Fc1cc(Cl)ccc1COc1nc(C2CCN(Cc3nc4cc(-c5nnc(C(F)(F)F)[nH]5)ncc4n3C[C@@H]3CCO3)CC2)ncc1F` [Compound 491a, 4-[(4-chloro-2-fluorophenyl)methoxy]-5-fluoro-2-{1-[(3-{[(2S)-oxetan-2-yl]methyl}-6-[5-(trifluoromethyl)-4H-1,2,4-triazol-3-yl]-3H-imidazo[4,5-c]pyridin-2-yl)methyl]piperidin-4-yl}pyrimidine], the pEC50 was 10.24. `Fc1cc(Cl)ccc1COc1cccc(N2CCN(Cc3nc4cc(-c5nnc(C(F)(F)F)[nH]5)nnc4n3C[C@@H]3CCO3)CC2)n1` [Compound 492a, 1-{6-[(4-chloro-2-fluorophenyl)methoxy]pyridin-2-yl}-4-[(7-{[(2S)-oxetan-2-yl]methyl}-3-[5-(trifluoromethyl)-4H-1,2,4-triazol-3-yl]-7H-imidazo[4,5-c]pyridazin-6-yl)methyl]piperazine] had a pEC50 of 10.08. `N#Cc1ccc(COc2cccc(N3CCN(Cc4nc5cc(-c6nnc(C(F)(F)F)[nH]6)nnc5n4C[C@@H]4CCO4)CC3)n2)c(F)c1` [Compound 493a, 3-fluoro-4-{[(6-{4-[(7-{[(2S)-oxetan-2-yl]methyl}-3-[5-(trifluoromethyl)-4H-1,2,4-triazol-3-yl]-7H-imidazo[4,5-c]pyridazin-6-yl)methyl]piperazin-1-yl}pyridin-2-yl)oxy]methyl}benzonitrile] showed a pEC50 of 10.36. Consider `Fc1cc(Cl)ccc1COc1cccc(N2CCN(Cc3nc4cc(-c5nnc(C(F)(F)F)[nH]5)cnc4n3C[C@@H]3CCO3)CC2)n1` [Compound 494a, 1-{6-[(4-chloro-2-fluorophenyl)methoxy]pyridin-2-yl}-4-[(3-{[(2S)-oxetan-2-yl]methyl}-6-[5-(trifluoromethyl)-4H-1,2,4-triazol-3-yl]-3H-imidazo[4,5-b]pyridin-2-yl)methyl]piperazine], for which the pEC50 was 10.89. The compound `N#Cc1ccc(COc2cccc(N3CCN(Cc4nc5cc(-c6nnc(C(F)(F)F)[nH]6)cnc5n4C[C@@H]4CCO4)CC3)n2)c(F)c1` [Compound 495a, 3-fluoro-4-{[(6-{4-[(3-{[(2S)-oxetan-2-yl]methyl}-6-[5-(trifluoromethyl)-4H-1,2,4-triazol-3-yl]-3H-imidazo[4,5-b]pyridin-2-yl)methyl]piperazin-1-yl}pyridin-2-yl)oxy]methyl}benzonitrile] gave a pEC50 of 11.08. `Cc1ccc(COc2cccc(C3CCN(Cc4nc5cc(-c6nnc(C(F)(F)F)[nH]6)ncc5n4C[C@@H]4CCO4)CC3)n2)c(F)c1` [Compound 496a, 2-[(2-fluoro-4-methylphenyl)methoxy]-6-{1-[(3-{[(2S)-oxetan-2-yl]methyl}-6-[5-(trifluoromethyl)-4H-1,2,4-triazol-3-yl]-3H-imidazo[4,5-c]pyridin-2-yl)methyl]piperidin-4-yl}pyridine] had a pEC50 of 10.77.
